Measured values taken from patent US12630565B2, “DNA-dependent protein kinase inhibitor” (DIZAL (JIANGSU) PHARMACEUTICAL CO., LTD., priority 2019, dated 2026).

How the values were obtained:
[1] = Metabolic stability assay (human microsomal Clint); assay type: in vitro ADME; conditions: human, pooled human liver microsomes, pH 7.4, 1 μM compound, 1 mg/mL microsomes, 1 mM NADPH, 37° C.
Protocol: 1 μM compound was incubated with 1 mg/mL of microsomes (Pooled HLM with 20 mg/ml protein cone) at 37° C. in 250 μL of buffer (100 mM phosphate buffer, pH-7.4) containing 1 mM NADPH solution. 20 μL of incubation mix was quenched with 5 volumes chilled acetonitrile at different time points 0, 0.5, 5, 10, 15, 20 and 30 min in a fresh 96 well plate. The quench plate was centrifuged at 4000 rpm for 15 min. 40 μL of supernatant was diluted to 200 μL with pure water and analyzed using LC-MS/MS.
In vitro intrinsic clearance of the drugs in the microsome CLint (μl/min/mg) was calculated in the similar manner as the CLint in the hepatocyte.

[2] = biological target: Full length human DNAPK protein (Homo sapiens, UniProt P78527); assay: DNA-PK enzymatic assay (TR-FRET); assay type: biochemical; conditions: 10 μM ATP, 1.6 μM peptide substrate
Rat hepatocyte = assay: Metabolic stability assay (rat hepatocyte Clint); assay type: in vitro ADME; conditions: 1 μM compound, cryopreserved hepatocytes 1 million cells per mL
Protocol: Viability of cryopreserved hepatocytes was determined using trypan blue and the cell conc. was adjusted to […] with buffer. 1 μM compound (in Acetonitrile; 0.01% DMSO) was incubated with 250 μL of hepatocytecells (1 million cells per mL) in a 96 deep well plate. Reaction was stopped at different time points (0, 0.5, 5, 15, 30, 45, 60, 80, 100 and 120 min) by addition of 3 volumes of chilled acetonitrile to 20 μL of reaction mixture and centrifuged at 4° C. for 15 min. 40 μL of supernatant was diluted to 200 μL with pure water and analyzed using LC-MS/MS.
In vitro hepatocyte clearance was estimated based on determination of elimination half-life (T1/2) of compounds disappearance from their initial concentrations. Peak area ratios of each compound (test or control) to IS was calculated. Drug elimination rate constant k (min−1), T1/2 (min), and in vitro intrinsic clearance CLint (μL/min/E6) was calculated according to the following equations: […]
Where Chep (cells×μL^−1) is the cell concentration in the incubation system.

MDR1, BCRP = assay: MDCKII-MDR1-BCRP efflux assay; assay type: in vitro ADME; conditions: dog, pH 7.4, 5 μM compound, HBSS pH 7.4, read-out: MDCK-Mdr1-BCRP efflux ratio
Protocol: The apical-to-basolateral (A-B) and basolateral-to-apical (B-A) transport of compound in HBSS (25 mM HEPES, pH 7.4) was measured across MDCKII-MDR1-BCRP cell monolayers. Incubations were performed at approximately 37° C. for 120 min, with functionality of the test system being confirmed using 5 μM digoxin as a positive control substrate. Transport of 5 μM compound and control compound were determined by quantifying substrate concentration in the incubation medium of donor compartment at the beginning of the incubation period, and both donor and receiver compartments at the end of the incubation period. The data was used to calculate the apparent permeability (Papp). All incubations were performed in triplicate and integrity of the cell monolayers was confirmed using the marker Lucifer yellow.
The permeability coefficient Pexact (cm/s) was calculated using the equation: […]
The Pexact ratio was calculated using the equation: […]
The efflux ratio was calculated using the equation: […]
Where dCr/dt is the cumulative concentration of compound in the receiver chamber as a function of time (μM/s); Vr is the solution volume in the receiver chamber (0.1 mL on the apical side, 0.3 mL on the basolateral side); A is the surface area for the transport, i.e. 0.11 cm2 for the area of the monolayer; CO is the initial concentration in the donor chamber (μM).

microsomal CLint at 1 μM [1] [µL/min/mg] | IC50 [2] [nM] | Rat hepatocyte CLint (μl/min/10^−6 cells) (Rat hepatocyte) | efflux ratio at 120 min, 5 μM (MDR1, BCRP) | SMILES
109 | 1.1 | 70.3 | 2.1 | Cc1cc2ncnn2cc1Nc1ncc2c(n1)c([C@H]1CC[C@H](OC(F)F)CC1)nn2C [Example 12, 3-((1r,4r)-4-(difluoromethoxy)cyclohexyl)-1-methyl-N-(7-methyl-[1,2,4]triazolo[1,5-a]pyridin-6-yl)-1H-pyrazolo[4,3-d]pyrimidin-5-amine]
12.9 | 3.9 | <1 | 2.8 | Cc1cc2ncnn2cc1Nc1ncc2c(C)nn(C3CCOCC3)c2n1 [Example 13, 3-methyl-N-(7-methyl-[1,2,4]triazolo[1,5-a]pyridin-6-yl)-1-(tetrahydro-2H-pyran-4-yl)-1H-pyrazolo[3,4-d]pyrimidin-6-amine]
9.9 | 1.6 | 1.7 | 2.3 | Cc1cc2nccn2cc1Nc1ncc2c(C)nn(C3CCOCC3)c2n1 [Example 14, 3-methyl-N-(7-methylimidazo[1,2-a]pyridin-6-yl)-1-(tetrahydro-2H-pyran-4-yl)-1H-pyrazolo[3,4-d]pyrimidin-6-amine]
69.6 | 35.2 | 14.6 | 0.8 | Cc1cc2ncnn2cc1Nc1ncc2c(C)cn(C3CCOCC3)c2n1 [Example 15, 7-methyl-N-(5-methyl-7-(tetrahydro-2H-pyran-4-yl)-7H-pyrrolo[2,3-d]pyrimidin-2-yl)-[1,2,4]triazolo[1,5-a]pyridin-6-amine]
26.4 | 8.4 | 11.8 | 0.8 | Cc1nn(C2CCOCC2)c2nc(Nc3cn4ncnc4cc3Cl)ncc12 [Example 16, N-(7-chloro-[1,2,4]triazolo[1,5-a]pyridin-6-yl)-3-methyl-1-(tetrahydro-2H-pyran-4-yl)-1H-pyrazolo[3,4-d]pyrimidin-6-amine]
54.7 | 5.2 | 7.2 | 1.5 | Cc1cc2ncnn2cc1Nc1ncc2c(C(F)(F)F)nn(C3CCOCC3)c2n1 [Example 17, N-(7-methyl-[1,2,4]triazolo[1,5-a]pyridin-6-yl)-1-(tetrahydro-2H-pyran-4-yl)-3-(trifluoromethyl)-1H-pyrazolo[3,4-d]pyrimidin-6-amine]
153 | 2.6 | 31.7 | 1.1 | COc1ccc(Cn2nc(C)c3cnc(Nc4cn5ncnc5cc4C)nc32)cc1 [Example 18, 1-(4-methoxybenzyl)-3-methyl-N-(7-methyl-[1,2,4]triazolo[1,5-a]pyridin-6-yl)-1H-pyrazolo[3,4-d]pyrimidin-6-amine]
4.3 | 25.9 | 6.8 | 13.1 | Cc1cc2ncnn2cc1Nc1ncc2c(C)nn(C3CCN(C)CC3)c2n1 [Example 19, 3-methyl-N-(7-methyl-[1,2,4]triazolo[1,5-a]pyridin-6-yl)-1-(1-methylpiperidin-4-yl)-1H-pyrazolo[3,4-d]pyrimidin-6-amine]
117 | 1.3 | 52.0 | 0.8 | Cc1cc2ncnn2cc1Nc1ncc2c(C)nn(C3CCCCC3)c2n1 [Example 20, 1-cyclohexyl-3-methyl-N-(7-methyl-[1,2,4]triazolo[1,5-a]pyridin-6-yl)-1H-pyrazolo[3,4-d]pyrimidin-6-amine]
115 | 0.7 | 21.2 | 0.9 | Cc1cc2ncnn2cc1Nc1ncc2c(C)nn(C3CCC(OC(F)F)CC3)c2n1 (stereo not drawn) [Example 23, 1-(4-(difluoromethoxy)cyclohexyl)-3-methyl-N-(7-methyl-[1,2,4]triazolo[1,5-a]pyridin-6-yl)-1H-pyrazolo[3,4-d]pyrimidin-6-amine]
209 | 1.8 | 17.7 | 1.3 | CO[C@H]1CC[C@@H](n2nc(C)c3cnc(Nc4cn5ncnc5cc4C)nc32)CC1 [Example 25, 1-((1s,4s)-4-methoxycyclohexyl)-3-methyl-N-(7-methyl-[1,2,4]triazolo[1,5-a]pyridin-6-yl)-1H-pyrazolo[3,4-d]pyrimidin-6-amine]
134 | 3 | 13.6 | 4.2 | CO[C@H]1CC[C@H](n2nc(C)c3cnc(Nc4cn5ccnc5cc4C)nc32)CC1 [Example 26, 1-((1r,4r)-4-methoxycyclohexyl)-3-methyl-N-(7-methylimidazo[1,2-a]pyridin-6-yl)-1H-pyrazolo[3,4-d]pyrimidin-6-amine]
6.6 | 1.8 | 12.4 | 31.2 | Cc1cc2ncnn2cc1Nc1ncc2c(C)nn([C@H]3CC[C@H](O)CC3)c2n1 [Example 31, (1r,4r)-4-(3-methyl-6-((7-methyl-[1,2,4]triazolo[1,5-a]pyridin-6-yl)amino)-1H-pyrazolo[3,4-d]pyrimidin-1-yl)cyclohexan-1-ol]
9.1 | 1.9 | 11.5 | 9.4 | Cc1cc2ncnn2cc1Nc1ncc2c(C)nn([C@H]3CC[C@@H](O)CC3)c2n1 [Example 32, (1s,4s)-4-(3-methyl-6-((7-methyl-[1,2,4]triazolo[1,5-a]pyridin-6-yl)amino)-1H-pyrazolo[3,4-d]pyrimidin-1-yl)cyclohexan-1-ol]
200 | 0.9 | 71.1 | 0.6 | Cc1cc2ncnn2cc1Nc1ncc2c(C)nn(C3CCC4(CC3)CC4)c2n1 [Example 37, 3-methyl-N-(7-methyl-[1,2,4]triazolo[1,5-a]pyridin-6-yl)-1-(spiro[2.5]octan-6-yl)-1H-pyrazolo[3,4-d]pyrimidin-6-amine]
34.2 | 11.1 | 15.3 | 1.4 | Cc1cc2ncnn2cc1Nc1ncc2c(C)nn(CC3CC3)c2n1 [Example 38, 1-(cyclopropylmethyl)-3-methyl-N-(7-methyl-[1,2,4]triazolo[1,5-a]pyridin-6-yl)-1H-pyrazolo[3,4-d]pyrimidin-6-amine]
151 | 2.1 | 153.3 | 0.9 | Cc1cc2ncnn2cc1Nc1ncc2c(C)nn([C@H]3C[C@H](C)C3)c2n1 [Example 39, 3-methyl-N-(7-methyl-[1,2,4]triazolo[1,5-a]pyridin-6-yl)-1-((1r,3r)-3-methylcyclobutyl)-1H-pyrazolo[3,4-d]pyrimidin-6-amine]
125 | 4.2 | 144.4 | 0.9 | Cc1cc2ncnn2cc1Nc1ncc2c(C)nn([C@H]3C[C@@H](C)C3)c2n1 [Example 40, 3-methyl-N-(7-methyl-[1,2,4]triazolo[1,5-a]pyridin-6-yl)-1-((1s,3s)-3-methylcyclobutyl)-1H-pyrazolo[3,4-d]pyrimidin-6-amine]
